Patent publication US4792569A, “Anticonvulsant phenethyl sulfamates” (McNeilab, Inc., priority 1987, dated 1988)

Test system: tonic extensor seizure
Experiment: maximal electroshock test (MES), block of tonic extensor seizure in mice
Format: in vivo, male albino mice of the Swiss Webster strain
Procedure: The compounds of formula (I) are useful as anticonvulsant agents. The anticonvulsant activity of the subject compounds was determined using a standard "maximal electroshock test" (MES). In this test, activity is indicated by a block of the tonic extensor seizure caused by application of an electric shock to mice via corneal electrodes, as described by Swinyard et al. in J. Pharmacol. Exptl. Therap. 106, 319 (1952). A more recent description of current anticonvulsant drug screening is given in Swinyard et al. in Epilepsia 19, 409 (1978). Non-fasted male albino mice of the Swiss Webster strain (Royal-Hart Laboratories, New Hampton, N.Y.) weighing 18-24 grams were used in this test. Six to eight groups of ten mice each were used per ED50 determination. The test compounds were administered as aqueous solutions or suspensions prepared with Tween 80 and water. Testing was conducted at 30 minutes following intraperitoneal injection and at 60 minutes following oral administration of the test compound. A group of ten mice injected with saline 10 ml/kg i.p. and tested 30 minutes later served as controls. ED50 's were calculated using a computerized probit analysis procedure.

Row | Structure (SMILES) | MES Test % Inhibition (100 mg/kg, 30 min i.p.) | MES Test % Inhibition (200 mg/kg, 60 min p.o.) | MES Test % Inhibition (500 mg/kg i.p. in 30 min)
1 | NS(=O)(=O)OCCc1ccccc1 [Example 1b, Phenethylsulfamate] | 90% | 100% | 
2 | NS(=O)(=O)OCCc1cccc(C(F)(F)F)c1 [Example 2, 3-(Trifluoromethyl)phenethylsulfamate] | 70% | 100% | 
3 | COc1ccc(CCOS(N)(=O)=O)cc1OC [Example 3, 3,4-Dimethoxyphenethyl sulfamate] |  |  | 30%
4 | Cc1ccccc1CCOS(N)(=O)=O [Example 5, 2-Methylphenethyl sulfamate] | 90% | 70% | 
5 | NS(=O)(=O)OCCc1cccc([N+](=O)[O-])c1 [Example 6, 3-Nitrophenethylsulfamate] | 80% | 40% | 
